Results on 1 molecule are retold here after ChEMBL document CHEMBL4706683 (J Med Chem, 2021).

Activity calls are given as the source filed them. The calls are words filed in the database; no cut-off is given here.

For orientation: IC50 means the point on the concentration scale where inhibition reaches its midpoint. As a reminder, the AUC(0-t) is exposure summed from dosing to a finite time, without extrapolation to infinity. A high value points to more exposure. Broadly, the AUC(0-inf) is total exposure, with the tail of the curve extrapolated.

For one data set, the system named is HEK-293T. As to the kind of experiment: Cytotoxicity against human HEK293T cells assessed as reduction in cell viability incubated for 72 hrs by cell titer glo assay. It counts as cell-based.
Data set [1] can be described thus: Inhibition of recombinant full length C-terminal His/FLAG-tagged Plasmodium falciparum HDAC1 expressed in baculovirus infected sf9 insect cells using fluorogenic […] as substrate preincubated for 1.5 hrs followed by substrate addition and measured after 30 mins by HDAC-GloI/II assay.
Data set [2] is described as follows: AUC (0 to t) in Balb/c mouse at 5 mg/kg, ip administered as single dose measured upto 24 hrs by LC-MS/MS analysis. To be noted: in vivo. It counts as ADME, organism-based. The arrangement: route intraperitoneal, dose 5 mg/kg, time <=24.
The subject of data set [3] is Plasmodium falciparum. The experiment in a line: Antiplasmodial activity against schizont stage Plasmodium falciparum 3D7 infected in human erythrocytes assessed as reduction in parasitemia at 10 times IC50 incubated for 12 hrs followed by compound washout and measured at 96 hrs post infection by […] analysis. It is filed as functional, organism-based. To be noted: Erythrocyte. Background: In flow cytometry, cells or beads pass a laser one at a time.

A short description of data set [4]: Half life in Balb/c mouse at 5 mg/kg, ip administered as single dose measured upto 24 hrs by LC-MS/MS analysis. It counts as ADME, organism-based. To be noted: in vivo.
Data set [5] concerns the target T1, NAD-dependent protein deacetylase sirtuin-2 (Homo sapiens, UniProt Q8IXJ6).
T1 sequence (Q8IXJ6 whole entry): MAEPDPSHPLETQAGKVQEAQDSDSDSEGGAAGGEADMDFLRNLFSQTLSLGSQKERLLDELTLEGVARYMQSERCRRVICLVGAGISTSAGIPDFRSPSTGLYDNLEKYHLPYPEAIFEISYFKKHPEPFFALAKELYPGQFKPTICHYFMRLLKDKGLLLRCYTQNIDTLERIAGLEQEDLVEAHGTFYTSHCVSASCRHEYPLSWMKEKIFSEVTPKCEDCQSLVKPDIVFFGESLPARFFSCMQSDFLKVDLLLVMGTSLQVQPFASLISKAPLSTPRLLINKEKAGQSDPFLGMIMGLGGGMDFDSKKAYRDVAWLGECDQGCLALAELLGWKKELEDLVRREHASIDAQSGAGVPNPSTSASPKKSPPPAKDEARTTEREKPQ
As to the kind of experiment: Inhibition of human C-terminal His-tagged SIRT2 (50 to 356 residues) expressed in Escherichia coli using Ac-peptide as substrate preincubated for 15 mins followed by substrate addition and incubated for 240 mins followed by trypsin addition and further incubated for 120 mins.

In data set [6] the test system is Plasmodium falciparum. As to the kind of experiment: Antiplasmodial activity against Plasmodium falciparum CP286 infected in human erythrocytes assessed as reduction in parasite growth incubated for 72 hrs by Giemsa staining based light microscopic method. It counts as functional, organism-based. The conditions noted are these: CP286, Erythrocyte.
In data set [7] the test system is Plasmodium falciparum. The experiment in a line: Antimalarial activity against synchronized schizont stage transgenic Plasmodium falciparum 3D7 with C-terminal 3xTY1-fused HDAC2 knockdown assessed as parasite growth inhibition pretreated with glucosamine followed by compound treatment and incubated for 4 hrs followed by compound washout for thrice and subsequent culturing for 68 hrs by SYBR Green 1 staining based analysis. It counts as functional, organism-based.

Data set [8] in a line: Toxicity in Balb/c mouse infected with sporozoites liver stage Plasmodium berghei assessed as animal death at 30 mg/kg, ip administered as single dose and measured upto 96 hrs. To be noted: in vivo. It is filed as organism-based.
The nature of data set [9]: AUC (0 to infinity) in Balb/c mouse at 5 mg/kg, ip administered as single dose measured upto 24 hrs by LC-MS/MS analysis. It counts as ADME, organism-based. The arrangement: route intraperitoneal, dose 5 mg/kg, time <=24. The conditions noted are these: in vivo.
In another data set the target is Histone deacetylase 2 (Homo sapiens, UniProt Q92769). The experiment in a line: Inhibition of human HDAC2 expressed in Sf9 cells using Ac-peptide as substrate preincubated for 15 mins followed by substrate and trypsin addition and further incubated for 60 mins.
Another data set deals with Plasmodium berghei. The experiment in a line: Antiplasmodial activity against liver stage Plasmodium berghei infected in Balb/c mouse assessed as reduction in parasitemia at 30 mg/kg, ip administered as single dose and measured upto 96 hrs by microscopic analysis. It is filed as functional, organism-based. The conditions noted are these: time hrs <=96.
For data set [10], the system named is Plasmodium falciparum. As to the kind of experiment: Antiplasmodial activity against synchronized ring stage Plasmodium falciparum Dd2 infected in human erythrocytes assessed as reduction in parasite growth incubated for 72 hrs by Giemsa staining based light microscopic method. It counts as functional, organism-based. To be noted: Dd2, Erythrocyte.
For data set [11], the system named is Plasmodium falciparum. The experiment in a line: Antimalarial activity against synchronized schizont stage transgenic Plasmodium falciparum 3D7 with C-terminal glmS-fused HDAC2 knockdown assessed as parasite growth inhibition pretreated with glucosamine followed by compound treatment and incubated for 4 hrs followed by compound washout for thrice and subsequent culturing for 68 hrs by SYBR Green 1 staining based analysis. It counts as functional, organism-based.

Data set [12] relates to Plasmodium falciparum. The experiment in a line: Antimalarial activity against synchronized schizont stage transgenic Plasmodium falciparum 3D7 with C-terminal glmS-fused HDAC1 knockdown assessed as parasite growth inhibition pretreated with glucosamine followed by compound treatment and incubated for 4 hrs followed by compound washout for thrice and subsequent culturing for 68 hrs by SYBR Green 1 staining based analysis. It is filed as functional, organism-based.

The next data set concerns Plasmodium yoelii. The experiment in a line: Antiplasmodial activity against blood stage Plasmodium yoelii infected in Balb/c mouse assessed as reduction in parasitemia at 10 to 30 mg/kg, ip QD for 5 consecutive days and measured on day 20 by microscopic analysis. It is filed as functional, organism-based. To be noted: dose 10-30 mg/kg, time 5.0 day.

Chain of Histone deacetylase 2 (Q92769 whole entry): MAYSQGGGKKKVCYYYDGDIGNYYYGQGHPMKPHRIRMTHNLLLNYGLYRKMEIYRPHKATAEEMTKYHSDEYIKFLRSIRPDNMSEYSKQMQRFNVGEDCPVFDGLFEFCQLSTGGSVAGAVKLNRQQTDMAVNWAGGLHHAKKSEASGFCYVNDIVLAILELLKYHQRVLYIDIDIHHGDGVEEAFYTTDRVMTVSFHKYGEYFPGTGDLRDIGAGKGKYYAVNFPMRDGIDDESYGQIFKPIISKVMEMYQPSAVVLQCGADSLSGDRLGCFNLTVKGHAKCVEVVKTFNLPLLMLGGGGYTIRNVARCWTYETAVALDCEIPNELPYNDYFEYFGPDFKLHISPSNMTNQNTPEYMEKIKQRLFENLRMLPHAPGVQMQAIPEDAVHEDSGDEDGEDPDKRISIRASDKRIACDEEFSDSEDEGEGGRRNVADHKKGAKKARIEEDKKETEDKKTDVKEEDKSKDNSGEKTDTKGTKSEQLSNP

For `Cl.O=C(NO)c1cnc(N2CCC3(CCN(Cc4c[nH]c5ccccc45)C3)CC2)nc1`, the IC50 with HEK-293T was 241 nM; in data set [1], 0.343 nM; in [5], above 10000 nM; with Plasmodium falciparum [6], 4.26 nM; in the data set on Plasmodium falciparum [7] it was 52.2 nM; on Histone deacetylase 2, 1.8 nM. Moreover, the IC50 in the data set with Plasmodium falciparum [10] was 1.9 nM; with Plasmodium falciparum [11] it was 69.5 nM; in the data set with Plasmodium falciparum [12] it was 4.3 nM. In data set [2], this molecule registered an exposure AUC(0-t) at 24 h of 81.9 ng·h/mL. In addition, the result in the data set with Plasmodium falciparum [3] and with Plasmodium berghei was Active. In data set [4], the t1/2 came to 26.4 min. Moreover, the Activity entry in data set [8] is on record as “Non-Toxic”. In [9], the AUC(0-inf) is 95.1 ng·h/mL. Also, the outcome with Plasmodium yoelii was inactive.
